≈ marks a conversion by molar mass, not a printed value.

This passage reports MIC results from ChEMBL document CHEMBL1147878, “Synthesis and in vitro antimicrobial activity of new 2-[p-substituted-benzyl]-5-[substituted-carbonylamino]benzoxazoles” (2007).

What all share (format): functional
One test deals with Staphylococcus aureus. Put plainly: Antibacterial activity against Staphylococcus aureus ATCC 25923 after 24 hrs by serial dilution method. Conditions: ATCC 25923, 24 h.
For a further test, the system named is Bacillus subtilis. Put plainly: Antibacterial activity against Bacillus subtilis ATCC 6633 after 24 hrs by serial dilution method. Conditions: ATCC 6633, 24 h.
The next test concerns Escherichia coli. Put plainly: Antibacterial activity against Escherichia coli ATCC 23556 after 24 hrs by serial dilution method. Conditions: ATCC 23556, 24 h.
For the next test, the system named is Pseudomonas aeruginosa. Put plainly: Antibacterial activity against Pseudomonas aeruginosa ATCC 10145 after 24 hrs by serial dilution method. Conditions: ATCC 10145, 24 h.
Another test has as its system Candida albicans. Put plainly: Antifungal activity against Candida albicans after 48 hrs by serial dilution method.
The test system of the next test is Pichia kudriavzevii. Put plainly: Antifungal activity against Candida krusei ATCC 6258 after 48 hrs by serial dilution method. Conditions: ATCC 6258, 48 h.
For the next test, the system named is Nakaseomyces glabratus. Put plainly: Antifungal activity against Candida glabrata after 48 hrs by serial dilution method.

Broadly, the MIC is the lowest concentration that inhibits growth of the organism. Lower therefore signals greater potency. `O=C(Nc1ccc2oc(Cc3ccc(Cl)cc3)nc2c1)c1ccc(F)cc1`: the MIC against Staphylococcus aureus is 50 µg/mL (≈ 131 µM); with Bacillus subtilis, 25 µg/mL (≈ 65.7 µM); against Escherichia coli, 25 µg/mL (≈ 65.7 µM); against Pseudomonas aeruginosa, 50 µg/mL (≈ 131 µM); with Candida albicans, 12.5 µg/mL (≈ 32.8 µM); in the test on Pichia kudriavzevii, 12.5 µg/mL (≈ 32.8 µM). The same compound yielded a minimum inhibitory concentration (MIC) in the test with Nakaseomyces glabratus of 12.5 µg/mL (≈ 32.8 µM).
On to `O=C(Nc1ccc2oc(Cc3ccccc3)nc2c1)c1ccc([N+](=O)[O-])cc1`, for which the minimum inhibitory concentration (MIC) against Staphylococcus aureus turned out to be 50 µg/mL (≈ 134 µM); in the test on Bacillus subtilis it was 25 µg/mL (≈ 67 µM); against Escherichia coli it was 100 µg/mL (≈ 268 µM); against Pseudomonas aeruginosa, 25 µg/mL (≈ 67 µM); against Candida albicans, 12.5 µg/mL (≈ 33.5 µM); against Pichia kudriavzevii, 12.5 µg/mL (≈ 33.5 µM). Also, in the test on Nakaseomyces glabratus, the MIC is 12.5 µg/mL (≈ 33.5 µM).
Consider `O=C(Cc1ccc([N+](=O)[O-])cc1)Nc1ccc2oc(Cc3ccc(Cl)cc3)nc2c1`, for which the MIC against Staphylococcus aureus was determined as 50 µg/mL (≈ 119 µM); in the test with Bacillus subtilis it was 50 µg/mL (≈ 119 µM); with Escherichia coli, 50 µg/mL (≈ 119 µM); against Pseudomonas aeruginosa, 25 µg/mL (≈ 59.3 µM); with Candida albicans, 12.5 µg/mL (≈ 29.6 µM); against Pichia kudriavzevii it was 25 µg/mL (≈ 59.3 µM). Moreover, the minimal inhibitory concentration (MIC) against Nakaseomyces glabratus stood at 25 µg/mL (≈ 59.3 µM).
For the compound `O=C(Nc1ccc2oc(Cc3ccccc3)nc2c1)c1ccc(Cl)c([N+](=O)[O-])c1`, the minimum inhibitory concentration (MIC) against Staphylococcus aureus is 50 µg/mL (≈ 123 µM); with Bacillus subtilis it was 25 µg/mL (≈ 61.3 µM); against Escherichia coli, 50 µg/mL (≈ 123 µM); in the test with Pseudomonas aeruginosa it was 25 µg/mL (≈ 61.3 µM); against Candida albicans it was 12.5 µg/mL (≈ 30.7 µM); against Pichia kudriavzevii it was 12.5 µg/mL (≈ 30.7 µM). Also, 12.5 µg/mL (≈ 30.7 µM) was the least that counted as inhibitory with Nakaseomyces glabratus (MIC).
Take `Cc1ccc(CC(=O)Nc2ccc3oc(Cc4ccc(Cl)cc4)nc3c2)cc1`: the minimum inhibitory concentration (MIC) against Staphylococcus aureus came out at 100 µg/mL (≈ 256 µM); against Bacillus subtilis, 25 µg/mL (≈ 64 µM); in the test with Escherichia coli, 50 µg/mL (≈ 128 µM); in the test on Pseudomonas aeruginosa, 25 µg/mL (≈ 64 µM); in the test with Candida albicans, 12.5 µg/mL (≈ 32 µM); against Pichia kudriavzevii, 12.5 µg/mL (≈ 32 µM). It took 12.5 µg/mL (≈ 32 µM) to inhibit growth against Nakaseomyces glabratus (MIC).
